Experiments:
Lung [1] = assay: Biodistribution in lung of mouse B16F0 cells implanted C57BL/6J mouse assessed per gram of tissue at 0.4 to 5.5 MBq, iv after 1 hr by gamma counter; format: ADME, organism-based; conditions: in vivo
Spleen [2] = assay: Biodistribution in spleen of mouse B16F0 cells implanted C57BL/6J mouse assessed per gram of tissue at 0.4 to 5.5 MBq, iv after 6 hrs by gamma counter; format: ADME, organism-based; conditions: in vivo
Stomach [3] = assay: Biodistribution in stomach of mouse B16F0 cells implanted C57BL/6J mouse assessed per gram of tissue at 0.4 to 5.5 MBq, iv after 1 hr by gamma counter; format: ADME, organism-based; conditions: in vivo
Stomach [4] = assay: Biodistribution in stomach of mouse B16F0 cells implanted C57BL/6J mouse assessed per gram of tissue at 0.4 to 5.5 MBq, iv after 3 hrs by gamma counter; format: ADME, organism-based; conditions: in vivo
Lung [5] = assay: Biodistribution in lung of mouse B16F0 cells implanted C57BL/6J mouse assessed per gram of tissue at 0.4 to 5.5 MBq, iv after 3 hrs by gamma counter; format: ADME, organism-based; conditions: in vivo
Thyroid gland [6] = assay: Biodistribution in thyroid of mouse B16F0 cells implanted C57BL/6J mouse assessed per gram of tissue at 0.4 to 5.5 MBq, iv after 6 hrs by gamma counter; format: ADME, organism-based; conditions: in vivo
Bone [7] = assay: Biodistribution in bone of mouse B16F0 cells implanted C57BL/6J mouse assessed per gram of tissue at 0.4 to 5.5 MBq, iv after 1 hr by gamma counter; format: ADME, organism-based, Bone element; conditions: in vivo
Spleen [8] = assay: Biodistribution in spleen of mouse B16F0 cells implanted C57BL/6J mouse assessed per gram of tissue at 0.4 to 5.5 MBq, iv after 0.25 hrs by gamma counter; format: ADME, organism-based; conditions: in vivo
[9] = Biodistribution in eye of mouse B16F0 cells implanted C57BL/6J mouse assessed per gram of tissue at 0.4 to 5.5 MBq, iv after 0.25 hrs by gamma counter; format: ADME, organism-based; conditions: in vivo
Spleen [10] = assay: Biodistribution in spleen of mouse B16F0 cells implanted C57BL/6J mouse assessed per gram of tissue at 0.4 to 5.5 MBq, iv after 1 hr by gamma counter; format: ADME, organism-based; conditions: in vivo
Thyroid gland [11] = assay: Biodistribution in thyroid of mouse B16F0 cells implanted C57BL/6J mouse assessed per gram of tissue at 0.4 to 5.5 MBq, iv after 0.25 hrs by gamma counter; format: ADME, organism-based; conditions: in vivo
[12] = Biodistribution in tumor of mouse B16F0 cells implanted C57BL/6J mouse assessed per gram of tissue at 0.4 to 5.5 MBq, iv after 1 hr by gamma counter; format: ADME, organism-based, Neoplasm; conditions: in vivo
Intestine [13] = assay: Biodistribution in intestine of mouse B16F0 cells implanted C57BL/6J mouse assessed per gram of tissue at 0.4 to 5.5 MBq, iv after 3 hrs by gamma counter; format: ADME, organism-based; conditions: in vivo
[14] = Biodistribution in eye of mouse B16F0 cells implanted C57BL/6J mouse assessed per gram of tissue at 0.4 to 5.5 MBq, iv after 1 hr by gamma counter; format: ADME, organism-based; conditions: in vivo
Thyroid gland [15] = assay: Biodistribution in thyroid of mouse B16F0 cells implanted C57BL/6J mouse assessed per gram of tissue at 0.4 to 5.5 MBq, iv after 3 hrs by gamma counter; format: ADME, organism-based; conditions: in vivo
Bone [16] = assay: Biodistribution in bone of mouse B16F0 cells implanted C57BL/6J mouse assessed per gram of tissue at 0.4 to 5.5 MBq, iv after 0.25 hrs by gamma counter; format: ADME, organism-based, Bone element; conditions: in vivo
[17] = Biodistribution in tumor of mouse B16F0 cells implanted C57BL/6J mouse assessed per gram of tissue at 0.4 to 5.5 MBq, iv after 3 hrs by gamma counter; format: ADME, organism-based, Neoplasm; conditions: in vivo
[18] = Biodistribution in eye of mouse B16F0 cells implanted C57BL/6J mouse assessed per gram of tissue at 0.4 to 5.5 MBq, iv after 6 hrs by gamma counter; format: ADME, organism-based; conditions: in vivo
Intestine [19] = assay: Biodistribution in intestine of mouse B16F0 cells implanted C57BL/6J mouse assessed per gram of tissue at 0.4 to 5.5 MBq, iv after 6 hrs by gamma counter; format: ADME, organism-based; conditions: in vivo
Lung [20] = assay: Biodistribution in lung of mouse B16F0 cells implanted C57BL/6J mouse assessed per gram of tissue at 0.4 to 5.5 MBq, iv after 6 hrs by gamma counter; format: ADME, organism-based; conditions: in vivo
Thyroid gland [21] = assay: Biodistribution in thyroid of mouse B16F0 cells implanted C57BL/6J mouse assessed per gram of tissue at 0.4 to 5.5 MBq, iv after 1 hr by gamma counter; format: ADME, organism-based; conditions: in vivo
Bone [22] = assay: Biodistribution in bone of mouse B16F0 cells implanted C57BL/6J mouse assessed per gram of tissue at 0.4 to 5.5 MBq, iv after 6 hrs by gamma counter; format: ADME, organism-based, Bone element; conditions: in vivo
Stomach [23] = assay: Biodistribution in stomach of mouse B16F0 cells implanted C57BL/6J mouse assessed per gram of tissue at 0.4 to 5.5 MBq, iv after 6 hrs by gamma counter; format: ADME, organism-based; conditions: in vivo
[24] = Biodistribution in tumor of mouse B16F0 cells implanted C57BL/6J mouse assessed per gram of tissue at 0.4 to 5.5 MBq, iv after 6 hrs by gamma counter; format: ADME, organism-based, Neoplasm; conditions: in vivo
Stomach [25] = assay: Biodistribution in stomach of mouse B16F0 cells implanted C57BL/6J mouse assessed per gram of tissue at 0.4 to 5.5 MBq, iv after 0.25 hrs by gamma counter; format: ADME, organism-based; conditions: in vivo
Intestine [26] = assay: Biodistribution in intestine of mouse B16F0 cells implanted C57BL/6J mouse assessed per gram of tissue at 0.4 to 5.5 MBq, iv after 1 hr by gamma counter; format: ADME, organism-based; conditions: in vivo
[27] = Lipophilicity, log P at pH 7.5; format: physicochemical; conditions: buffer
Spleen [28] = assay: Biodistribution in spleen of mouse B16F0 cells implanted C57BL/6J mouse assessed per gram of tissue at 0.4 to 5.5 MBq, iv after 3 hrs by gamma counter; format: ADME, organism-based; conditions: in vivo
Intestine [29] = assay: Biodistribution in intestine of mouse B16F0 cells implanted C57BL/6J mouse assessed per gram of tissue at 0.4 to 5.5 MBq, iv after 0.25 hrs by gamma counter; format: ADME, organism-based; conditions: in vivo
Lung [30] = assay: Biodistribution in lung of mouse B16F0 cells implanted C57BL/6J mouse assessed per gram of tissue at 0.4 to 5.5 MBq, iv after 0.25 hrs by gamma counter; format: ADME, organism-based; conditions: in vivo
[31] = Biodistribution in tumor of mouse B16F0 cells implanted C57BL/6J mouse assessed per gram of tissue at 0.4 to 5.5 MBq, iv after 0.25 hrs by gamma counter; format: ADME, organism-based, Neoplasm; conditions: in vivo
[32] = Biodistribution in eye of mouse B16F0 cells implanted C57BL/6J mouse assessed per gram of tissue at 0.4 to 5.5 MBq, iv after 3 hrs by gamma counter; format: ADME, organism-based; conditions: in vivo
Bone [33] = assay: Biodistribution in bone of mouse B16F0 cells implanted C57BL/6J mouse assessed per gram of tissue at 0.4 to 5.5 MBq, iv after 3 hrs by gamma counter; format: ADME, organism-based, Bone element; conditions: in vivo

Structure (SMILES)	Drug uptake (Lung [1])	Drug uptake (Spleen [2])	Drug uptake (Stomach [3])	Drug uptake (Stomach [4])	Drug uptake (Lung [5])	Drug uptake (Thyroid gland [6])	Drug uptake (Bone [7])	Drug uptake (Spleen [8])	Drug uptake [9]	Drug uptake (Spleen [10])	Drug uptake (Thyroid gland [11])	Drug uptake [12]	Drug uptake (Intestine [13])	Drug uptake [14]	Drug uptake (Thyroid gland [15])	Drug uptake (Bone [16])	Drug uptake [17]	Drug uptake [18]	Drug uptake (Intestine [19])	Drug uptake (Lung [20])	further results
CCN(CC)CCNC(=O)c1cccnc1[18F]	1.5%	0.5%	6.8%	1.9%	0.35%	3.2%	3.4%	11.8%	36.7%	9.2%	4.5%	14.6%	7.1%	38%	2.1%	4.8%	17.3%	27.4%	3.6%	0.2%	Drug uptake (Thyroid gland [21]): 2.2%; Drug uptake (Bone [22]): 5.6%; Drug uptake (Stomach [23]): 0.7%; Drug uptake [24]: 4.8%; Drug uptake (Stomach [25]): 14.7%; Drug uptake (Intestine [26]): 7.1%; logD [27]: 0.94; Drug uptake (Spleen [28]): 2.5%; Drug uptake (Intestine [29]): 7.8%; Drug uptake (Lung [30]): 5%; Drug uptake [31]: 10.6%; Drug uptake [32]: 36.3%; Drug uptake (Bone [33]): 4.6%
CCCCN(C)CCCCNC(=O)c1ccc([18F])nc1	4.5%	4.1%	3.3%	2.4%	3.1%	2%	2%	11.2%	11.3%	7.4%	10.2%	4.8%	4.2%	12.7%	2.9%	3.89%	5.3%	15.8%	3.1%	2.2%	Drug uptake (Thyroid gland [21]): 5.4%; Drug uptake (Bone [22]): 1%; Drug uptake (Stomach [23]): 1.8%; Drug uptake [24]: 5.3%; Drug uptake (Stomach [25]): 8.5%; Drug uptake (Intestine [26]): 5.8%; logD [27]: 1.52; Drug uptake (Spleen [28]): 5.3%; Drug uptake (Intestine [29]): 8.2%; Drug uptake (Lung [30]): 12.1%; Drug uptake [31]: 4%; Drug uptake [32]: 14.3%; Drug uptake (Bone [33]): 1.4%
